The source of these data is article PMC9774939, “Optimization of Pyrazole Compounds as Antibiotic Adjuvants Active against Colistin- and Carbapenem-Resistant Acinetobacter baumannii” (Antibiotics, 2022).

What is called MIC is the lowest concentration found to suppress growth. One may read the melting point as the temperature of the solid-liquid transition.

For data set [1], the system named is eight reference strains, Gram-positive and Gram-negative. The experiment in a line: Agar diffusion test, direct antibacterial activity. The class given is cell-based. The following applies: for direct-acting antibacterial activity (agar diffusion): eight reference strains; for growth inhibition zone diameter: agar diffusion, on Gram-positive organisms. As to the method: Compounds 3–40, 42, 44–47, and 49 (Scheme 1, Scheme 2, Scheme 3, Scheme 4 and Scheme 5) were subjected to a detailed investigation of their direct and synergistic antibacterial activity and potential cytotoxicity by using several methods. The direct antibacterial activity of these compounds was determined using both agar diffusion and broth microdilution methods. The former was initially used to identify potentially active compounds and was tested on eight reference strains, with representatives of both Gram-positive and Gram-negative clinically relevant bacterial species or genera (Figure 4).
The compounds were provided as powders and dissolved in 100% DMSO at a final concentration of 50 mg/mL. When a compound was not soluble, DMSO was further added to lower the concentration to 25 mg/mL or, when necessary, 12.5 or 6.25 mg/mL, until the compound was completely solubilized. The primary screen used in the evaluation of the direct antibacterial activity through an agar diffusion test was implemented on a 8-channel, automated liquid-handling platform (PerkinElmer Janus Integrator, Waltham, Mass.), which was located under a custom-made class 1000 laminar flow cabinet (Faster, Cornaredo, Italy). Briefly, 1-well plates (Thermo Fisher Scientific, Waltham, Mass.), previously filled with Mueller–Hinton Agar medium, were inoculated with a suspension of the bacterium in a sterile 0.9% NaCl solution containing 1.5 × 10^8 CFU/mL, using a sterile swab. Indicator organisms included 4 Gram-positive (Bacillus subtilis ATCC 6633, Enterococcus faecalis ATCC 29212, Staphylococcus epidermidis ATCC 14990, and Streptococcus pyogenes ATCC 12344) and 4 Gram-negative (Escherichia coli CCUG^T, Klebsiella pneumoniae ATCC 13833, Pseudomonas aeruginosa ATCC 27853, and Acinetobacter baumannii ATCC 17978) strains, which were routinely propagated using Mueller–Hinton Agar plates. In total, 2 μL of each solution of compounds was dispensed on the plate surface (corresponding to 100, 50, 25, or 12.5 μg of compound according to its solubility). The controls included the solvent (100% DMSO), kanamycin, piperacillin, ceftazidime, vancomycin, and teicoplanin. The results were recorded as the diameter of the growth inhibition zone. The inhibition zones of the controls (max variation from expected diameter, ± 1 mm) were used as the validation criteria. The assays were performed at least in duplicate, and the position in which a single compound was spotted on the plate was randomly modified in any successive experiment.
(In general: Agar diffusion results depend on both activity and mobility in agar.)

Data set [2] concerns bacterial reference strains. The data set can be described thus: Broth microdilution MIC, direct activity. In kind it is cell-based. As to the method: (§1) The minimum inhibitory concentration (MIC) and minimum bactericidal concentration (MBC) of the compounds were determined in triplicate using Mueller–Hinton broth and a bacterial inoculum of 5 × 10^5 CFU/mL, as recommended by the CLSI [26]. The minimum antibacterial concentration (MAC) of the compounds was determined in the presence of a fixed and subinhibitory concentration of colistin (as mentioned above).

In a further data set the test system is Bacillus subtilis. The data set can be described thus: Broth microdilution MIC. In kind it is cell-based. To be noted: compound alone. On the procedure: as §1
In general terms: Broth dilution looks for growth in wells or tubes with falling amounts of substance.

In a further data set the test system is Enterococcus faecalis. The experiment in a line: Broth microdilution MIC. The following applies: compound alone. The class given is cell-based. On the procedure:
as §1

In another data set the test system is Staphylococcus aureus. The data set can be described thus: Broth microdilution MIC. The class given is cell-based. The following applies: compound alone. On the procedure: as §1
The next data set concerns Streptococcus pyogenes. The experiment in a line: Broth microdilution MIC. In kind it is cell-based. The following applies: compound alone. On the procedure: as §1
The test system of another data set is Escherichia coli CCUG^T. The experiment in a line: MAC determination in the presence of subinhibitory colistin. In kind it is cell-based. Also on record: key to MAC Eco: -: No synergistic activity. To be noted: for MAC Eco: in the presence of 0.5 × MIC colistin; for MIC/MAC Ratio Eco: minimal ratio of MIC of compound alone to MAC with 0.5 × MIC colistin. As to the method:
as §1

For data set [3], the system named is Klebsiella pneumoniae ATCC 13833. The data set is described as above. To be noted: for MAC Kpn: in the presence of 0.5 × MIC colistin; for MIC/MAC Ratio Kpn: minimal ratio of MIC of compound alone to MAC with 0.5 × MIC colistin. In kind it is cell-based. As to the method: as §1
Data set [4] has as its system Acinetobacter baumannii ATCC 17978. The data set is described as above. The following applies: for MAC Aba: in the presence of 0.5 × MIC colistin; for MIC/MAC Ratio Aba: minimal ratio of MIC of compound alone to MAC with 0.5 × MIC colistin. Set-up: key to MAC Aba: -: No synergistic activity. The class given is cell-based. On the procedure: as §1

≈ marks a conversion by molar mass, not a printed value. Some results are limits rather than exact numbers.

The compound `C[C@H](NC(=O)CNC(=O)c1cnn(-c2ccccc2)c1-n1cccc1)C(=O)O` [Compound 19, N-[N-[[1-Phenyl-5-(1H-pyrrol-1-yl)-1H-pyrazol-4-yl]carbonyl]glycyl]-L-alanine] gave a melting point of 80 to 84 °C. Moreover, the “direct-acting antibacterial activity (agar diffusion)” value (“direct-acting antibacterial activity” for short) in [1] is listed as “broad-spectrum, though moderate, direct-acting antibacterial activity”. Further, the MIC in data set [2] was ≥ 512 µg/mL.

The compound `Cc1c(C(=O)Nc2cccc(C(=O)O)c2)nn(-c2ccc(Cl)cc2)c1-n1cccc1` [Compound 42, 3-[[[1-(4-Chlorophenyl)-4-methyl-5-(1H-pyrrol-1-yl)-1H-pyrazol-3-yl]carbonyl]amino]benzoic Acid] showed a melting point of 248 to 250 °C. Besides, in [1], the “growth inhibition zone diameter” value is reported as “up to 18 mm” and the “direct-acting antibacterial activity” value is reported as “broad-spectrum, though moderate, direct-acting antibacterial activity”. Moreover, the MIC in data set [2] is ≥ 512 µg/mL. The MIC in the data set with Bacillus subtilis is 32 µg/mL (≈ 76 µM). Also, the lowest concentration to inhibit growth in the data set with Enterococcus faecalis (MIC) was 32 µg/mL (≈ 76 µM). The compound also showed an MIC against Staphylococcus aureus of 32 µg/mL (≈ 76 µM). In addition, the minimal inhibitory concentration (MIC) with Streptococcus pyogenes was determined as 16 µg/mL (≈ 38 µM).

The compound `C[C@H](NC(=O)c1cnn(-c2ccccc2)c1-n1cccc1)C(=O)O` [Compound 16, (S)-2-[[[1-Phenyl-5-(1H-pyrrol-1-yl)-1H-pyrazol-4-yl]carbonyl]amino]propanoic Acid] displayed a melting point of 142 to 145 °C. Also, the “direct-acting antibacterial activity” value in [1] is listed as “broad-spectrum, though moderate, direct-acting antibacterial activity”. Besides, in data set [2], the MIC is ≥ 512 µg/mL.

In turn, `CC(C)[C@H](NC(=O)c1cnn(-c2ccccc2)c1-n1cccc1)C(=O)O` [Compound 17, (S)-3-Methyl-2-[[[1-phenyl-5-(1H-pyrrol-1-yl)-1H-pyrazol-4-yl]carbonyl]amino]butanoic Acid] came in with a melting point of 150 to 152 °C. For the same compound, the “direct-acting antibacterial activity” value in data set [1] was “broad-spectrum, though moderate, direct-acting antibacterial activity”. The MIC in [2] is ≥ 512 µg/mL.

Compound `CCOC(=O)NS(=O)(=O)c1ccc(NC(=O)c2nn(-c3ccc(Cl)cc3)c(-n3cccc3)c2C)cc1` [Compound 47, Ethyl [[4-[1-(4-Chlorophenyl)-4-methyl-5-(1H-pyrrol-1-yl)-1H-pyrazole-3-carboxamido]phenyl]sulfonyl]carbamate] showed a melting point of 188 to 190 °C. Also, the “growth inhibition zone diameter” value in data set [1] was “up to 18 mm”. In the data set on Bacillus subtilis, this compound had an MIC of 32 µg/mL (≈ 60.6 µM). In the data set with Enterococcus faecalis, this compound had a minimal inhibitory concentration (MIC) of 32 µg/mL (≈ 60.6 µM). The same compound came in with an MIC against Staphylococcus aureus of 32 µg/mL (≈ 60.6 µM). The compound also showed an MIC in the data set with Streptococcus pyogenes of 16 µg/mL (≈ 30.3 µM).

In turn, `Cc1c(C(=O)NC23CC4CC(CC(O)(C4)C2)C3)nn(-c2ccccc2)c1-n1cccc1` [Compound 27, N-(Adamantan-3-ol-1-yl)-4-methyl-1-phenyl-5-(1H-pyrrol-1-yl)-1H-pyrazole-3-carboxamide] had a melting point of 137 to 138 °C. Moreover, in the data set on Escherichia coli CCUG^T, the “MAC Eco” value is recorded as 32 µg/mL and the “MIC/MAC Ratio Eco” value came out at 16. Also, in data set [3], the “MAC Kpn” value is 32 µg/mL and the “MIC/MAC Ratio Kpn” value is listed as 16. In addition, the “MAC Aba” value in [4] is “-”.

`Cc1c(C(=O)Nc2ccccc2C(=O)O)nn(-c2ccc(Cl)cc2)c1-n1cccc1` [Compound 44, 2-[[[1-(4-Chlorophenyl)-4-methyl-5-(1H-pyrrol-1-yl)-1H-pyrazol-3-yl]carbonyl]amino]benzoic Acid]: the melting point is 270 to 272 °C. Further, the “growth inhibition zone diameter” value in data set [1] was “up to 18 mm”. Inhibition of growth in the data set on Bacillus subtilis (MIC) required 32 µg/mL (≈ 76 µM). Further, the MIC in the data set on Enterococcus faecalis was 32 µg/mL (≈ 76 µM). Further, the minimum inhibitory concentration (MIC) with Staphylococcus aureus is 32 µg/mL (≈ 76 µM). The MIC with Streptococcus pyogenes came out at 16 µg/mL (≈ 38 µM).

In turn, `Cc1c(C(=O)N2CCN(C)CC2)nn(-c2ccc(Cl)cc2)c1-n1cccc1` [Compound 28, [1-(4-Chlorophenyl)-4-methyl-5-(1H-pyrrol-1-yl)-1H-pyrazol-3-yl](4-methylpiperazin-1-yl)methanone] registered a melting point of 178 to 182 °C. In the data set on Escherichia coli CCUG^T, the “MAC Eco” value worked out at 64 µg/mL and the “MIC/MAC Ratio Eco” value is reported as 8. In data set [3], the “MAC Kpn” value turned out to be 64 µg/mL and the “MIC/MAC Ratio Kpn” value is 8. In addition, in [4], the “MAC Aba” value was determined as 64 µg/mL and the “MIC/MAC Ratio Aba” value is reported as 8.

For `O=C(O)CNC(=O)c1cnn(-c2ccccc2)c1-n1cccc1` [Compound 15, [[[1-Phenyl-5-(1H-pyrrol-1-yl)-1H-pyrazol-4-yl]carbonyl]amino]acetic Acid], the melting point is 191 to 194 °C. Moreover, in data set [1], the “direct-acting antibacterial activity” value is given as “broad-spectrum, though moderate, direct-acting antibacterial activity”. The MIC in [2] was ≥ 512 µg/mL.

Take `Cc1c(C(=O)Nc2ccc(C(=O)O)cc2)nn(-c2ccc(Cl)cc2)c1-n1cccc1` [Compound 40, 4-[[[1-(4-Chlorophenyl)-4-methyl-5-(1H-pyrrol-1-yl)-1H-pyrazol-3-yl]carbonyl]amino]benzoic Acid]: the melting point is > 250 °C. The “growth inhibition zone diameter” value in [1] is “up to 18 mm”. In addition, 32 µg/mL (≈ 76 µM) was the least that counted as inhibitory against Bacillus subtilis (MIC). The compound further returned an MIC in the data set with Enterococcus faecalis of 32 µg/mL (≈ 76 µM). In the data set with Staphylococcus aureus, this compound displayed an MIC of 32 µg/mL (≈ 76 µM). The lowest concentration to inhibit growth in the data set on Streptococcus pyogenes (MIC) was 16 µg/mL (≈ 38 µM).

On to `CC(C)(C)OC(=O)Nc1c(C(=O)NCc2ccc(-c3ccc(OC(F)(F)F)cc3)cn2)cnn1-c1ccc([N+](=O)[O-])cc1` [Compound 22, 5-(tert-Butoxycarbonylamino)-1-(4-nitrophenyl)-N-[[5-(4-trifluoromethoxyphenyl)pyridin-2-yl]methyl]-1H-pyrazole-4-carboxamide], for which the melting point fell in the range of 197 to 199 °C. Moreover, in the data set with Escherichia coli CCUG^T, the “MAC Eco” value is “-”. Moreover, in data set [3], the “MAC Kpn” value is 64 µg/mL and the “MIC/MAC Ratio Kpn” value is listed as 8. In data set [4], the “MAC Aba” value came out at 64 µg/mL and the “MIC/MAC Ratio Aba” value is 8.
